Source: US10434092B2, “Dosage regimen for an alpha-isoform selective phosphatidylinositol 3-kinase inhibitor” (Novartis AG, priority 2013, dated 2019)
Several values for one entry are separate records, joined by “and”; a condition that tells them apart may be missing. Equal entries are not always repeated.

Key:
S473P-Akt [1] = experiment: In vivo S473P-Akt inhibition in Rat1-myr-p110α tumors (RPPA) versus tumor drug concentration; parameters: species or system nude mice and rats
Method: (§1) Rat1-Myr-p110α tumors were established by subcutaneous injection of […] in 100 μL HBSS (Sigma #H8264) into the right flank of nude mice or nude rats. For the efficacy experiments, treatments were initiated when the mean tumor volumes were approx. 300 mm^3 (14 to 15 days post tumor cells injection).
(§2) Blood samples were collected at different time points post the last treatment (1 hour, 2 hour, 4 hour, 8 hour, 12 hour, 16 hour and 24 hour, n=2-3 per time point) into tubes coated with K-EDTA. Blood samples were centrifuged and collected plasma immediately frozen at −80° C. until final processing. Tumors were collected at sacrifice at 7 time points (1 hour, 2 hour, 4 hour, 8 hour, 12 hour, 16 hour and 24 hour, n=2-3 per time point), snap frozen and kept at −80° C. until final processing.
After dissection, the tumors were snap-frozen in liquid nitrogen and stored at −80° C. Frozen tumors were pulverized using a Retsch ball mixer mill MM20 (Arlesheim, Switzerland) with metal cylinders that were pre-cooled to −80° C. in a freezer. Powder was scrapped from metal cylinders on dry ice and transferred into pre-cooled 1.5 mL Eppendorf tubes while avoiding melting.
(§3) Following addition of 25 μL of internal standard (1 μg/mL) to analytical aliquots (25 μL) of plasma or (20 mg) tumor powder, the proteins were precipitated by the addition of 200 μL acetonitrile. The supernatant were transferred in a fresh vial. After evaporation to dryness the samples were re-dissolved in 60 μL acetonitrile/water (1/1 v/v). An aliquot (5 μL) of this solution was separated on a ACQUITY UPLC BEH C18 column (Waters™ 1.7 μm particle size, 2.1×50 mm) with a mobile phase consisting of a mixture of 0.1% formic acid in water (solvent A) and 0.1% formic acid in acetonitrile (solvent B). Gradient programming was used with a flow rate of 600 μL/min. After equilibration with 95% solvent A, 5 μL of sample was injected. Following a latency period of 0.25 min, the sample was eluted with a linear gradient of 5-100% solvent B over a period of 0.65 minutes followed by a 0.35 minutes hold. The column was prepared for the next sample by re-equilibrating over 0.25 minutes to the starting conditions. […]
Each sample was vortexed and centrifuged for 10 minutes at 10,000 rpm. […] The protein concentrations were quantified using the Coomassie Plus Kit (#23236 Thermo Scientific, Rockford, Ill., USA) according to the protocol of the manufacturer. The diluted samples were transferred into a 96 well plate (#269620, NUNC) and the absorbance was measured at 595 nm using a SpectraMAX Plus plate reader from Molecular Devices. The Protein amount was calculated using the Softmax Pro 5.0 software (Molecular Devices, USA) and then normalized on 1 mg/mL using the corresponding lysis buffer. […]

Plasma protein binding = assay type: in vitro ADME; conditions: mouse, read-out: plasma protein binding (PPB) (converted)
S473P-Akt [2] = experiment: In vitro cellular S473P-Akt inhibition; assay type: cell-based
Rat1-myr-p110α tumor [3] = experiment: Antitumor activity in the Rat1-myr-p110α tumor model, nude mice; assay type: in vivo; conditions: oral
Method: (§4) Experiments were performed in female Hsd: Athymic Nude-nu CPB mice (Harlan Winkelmann, Germany). Animals were between 12 and 14 weeks of age at treatment start and housed under Optimized Hygienic Conditions (OHC) in Makrolon type III cages (max. 5 animals per cage) with free access to food and water. In addition, experiments were also performed in female nude Rowett rats Hsd: RH-Fox1mu (Harlan (The Netherlands). Animals were 6-9 weeks of age at time of application of the compound. Animals were housed under Optimized Hygienic Conditions in Makrolon type III cages (max. 2 animals per cage) with free access to food and water. They were allowed to adapt for at least 6 days before the experiment was started.
(§5) Rat1-Myr-p110α cells were grown in Dulbecco's Modified Eagle Medium (DMEM) culture medium containing 4.5 g/l glucose supplemented with 10% heat-inactivated fetal calf serum (FCS), 2 mM L-glutamine, 1 mM sodium pyruvate and incubated at 37° C. in a 5% CO2 humidified atmosphere. Cells were harvested with trypsin-EDTA, re-suspended in culture medium (with additives) and counted with a Casy® system. Finally, cells are centrifuged, suspended in ice-cold Hanks' balanced salt solution (HBSS) at a concentration of 3×10^7 cells/ml. Cell culture reagents were purchased from BioConcept (Allschwil, Switzerland).
as §1
(§6) Fresh suspensions were prepared once every 4 days and stored at 4° C.
(§7) Tumor volumes were measured with calipers and determined according to the formula: length×diameter^2×[…]/6. In addition to presenting changes of tumor volumes over the course of treatments, antitumor activity is expressed as T/C % (mean change of tumor volume of treated animals/mean change of tumor volume of control animals)×100. Regressions (%) were calculated according to the formula ((mean tumor volume at end of treatment−mean tumor volume at start of treatment)/mean tumor volume at start of treatment)×100. Body weights and tumor volumes were recorded two to three times a week.

Rat1-myr-p110α tumor [4] = experiment: Antitumor activity in the Rat1-myr-p110α tumor model, nude rats; assay type: in vivo; conditions: nude rat, oral
Method: as §4, §5, §1, §6, §7

Rat1-myr P110a tumors = experiment: PK/PD/efficacy relationship (time over in vivo IC80 versus anti-tumor efficacy); parameters: species or system mice and rats
Excerpt: Phoenix WinNonlin 6.3 (Pharsight) was used to simulate the mean plasma concentration time profiles after multiple dosing using the non-compartmental nonparametric superposition approach of data generated either from a mouse or rat efficacy study. The predictions are based upon an accumulation ratio computed from the terminal slope (Lambda Z), allowing predictions from simple or complicated dosing schedules.
FIG. 6 provides the relationship between exposure (as measured by time over the in vivo IC80) and anti-tumor efficacy. Further, a nearly linear relationship is identified between the anti-tumor efficacy magnitude and duration of drug exposure (as measured by time over the in vivo IC80) over the IC80 (R^2=0.89; FIG. 7).

[5] = Modulation of glucose and insulin levels, nude mice; assay type: in vivo; conditions: versus plasma drug concentration
[6] = Modulation of glucose and insulin levels, nude rats; assay type: in vivo; conditions: versus plasma drug concentration
[7] = PK/PD/tolerability relationship (time above hyperglycemia threshold versus body weight loss); assay type: in vivo, nude mice and rats; conditions: mice and rats, threshold 20 μmol/L mice
Excerpt: From this relationship, it is understood that the compound exposure levels should be sustained for no more than 35% of the dosing interval above the hyperglycemia cut-off to maintain body weight loss below 5% in mice and rats.

Human plasma exposure = assay type: in vivo; conditions: po, human dose 300-350 mg/day p.o.
Method: The corresponding total dose for qd in continuous daily schedule p.o. dose would be 14 mg/kg.

[8] = Pharmacokinetics after oral administration, nude mice; assay type: in vivo; conditions: nude mice, 12.5, 25 and 50 mg/kg qd
Method: as §2
as §3, with “hold.” for “hold. The column was prepared for the next sample by re-equilibrating over 0.25 minutes to the starting conditions.”

[9] = Pharmacokinetics after oral administration, nude rats; assay type: in vivo; conditions: nude rats, 12.5, 25, 40 and 80 mg/kg qd
Method: as §2
as §3, with “hold.” for “hold. The column was prepared for the next sample by re-equilibrating over 0.25 minutes to the starting conditions.”

[10] = test system: advanced solid malignancies carrying an alteration in the PIK3CA gene; conditions: patients treated at ≥270 mg/day, oral, continuous daily schedule; breast, colorectal, endometrial, cervical cancer (1 patient each); as of Feb. 15, 2013; cited from earlier work
[11] = once or twice per day continuous daily schedule, oral; cited from earlier work
Vps34 = Vps34 (Homo sapiens, UniProt Q8NEB9); conditions: cited from earlier work
Chain of Vps34 (Q8NEB9 whole entry, species assumed): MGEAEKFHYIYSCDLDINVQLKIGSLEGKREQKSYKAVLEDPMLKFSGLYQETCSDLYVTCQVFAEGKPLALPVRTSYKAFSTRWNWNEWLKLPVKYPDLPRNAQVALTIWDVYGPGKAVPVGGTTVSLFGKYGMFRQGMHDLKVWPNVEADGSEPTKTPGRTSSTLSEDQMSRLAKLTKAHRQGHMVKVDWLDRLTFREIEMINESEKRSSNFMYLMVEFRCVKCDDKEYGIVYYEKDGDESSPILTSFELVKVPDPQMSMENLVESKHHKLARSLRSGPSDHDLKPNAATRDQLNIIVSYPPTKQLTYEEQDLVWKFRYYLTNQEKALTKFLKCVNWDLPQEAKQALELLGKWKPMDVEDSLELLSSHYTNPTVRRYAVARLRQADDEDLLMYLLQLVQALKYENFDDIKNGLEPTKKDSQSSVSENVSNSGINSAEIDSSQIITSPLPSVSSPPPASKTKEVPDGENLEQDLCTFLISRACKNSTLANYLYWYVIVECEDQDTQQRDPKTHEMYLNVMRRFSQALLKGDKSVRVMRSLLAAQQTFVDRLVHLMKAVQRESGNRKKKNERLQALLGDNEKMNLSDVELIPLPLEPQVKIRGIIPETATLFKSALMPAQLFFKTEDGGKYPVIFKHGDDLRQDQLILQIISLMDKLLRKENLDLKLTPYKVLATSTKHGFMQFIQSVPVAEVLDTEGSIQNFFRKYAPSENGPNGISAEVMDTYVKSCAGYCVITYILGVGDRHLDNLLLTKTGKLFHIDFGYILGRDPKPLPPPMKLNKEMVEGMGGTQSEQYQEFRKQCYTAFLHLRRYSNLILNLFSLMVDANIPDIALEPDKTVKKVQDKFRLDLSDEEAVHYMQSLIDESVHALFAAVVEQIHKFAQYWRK

mTOR = mTOR (Homo sapiens, UniProt P42345); conditions: cited from earlier work
DNA-PK = DNA-PK (Homo sapiens, UniProt P78527); conditions: cited from earlier work
ATR = ATR (Homo sapiens, UniProt Q13535); conditions: cited from earlier work
Chain of ATR (Q13535 whole entry): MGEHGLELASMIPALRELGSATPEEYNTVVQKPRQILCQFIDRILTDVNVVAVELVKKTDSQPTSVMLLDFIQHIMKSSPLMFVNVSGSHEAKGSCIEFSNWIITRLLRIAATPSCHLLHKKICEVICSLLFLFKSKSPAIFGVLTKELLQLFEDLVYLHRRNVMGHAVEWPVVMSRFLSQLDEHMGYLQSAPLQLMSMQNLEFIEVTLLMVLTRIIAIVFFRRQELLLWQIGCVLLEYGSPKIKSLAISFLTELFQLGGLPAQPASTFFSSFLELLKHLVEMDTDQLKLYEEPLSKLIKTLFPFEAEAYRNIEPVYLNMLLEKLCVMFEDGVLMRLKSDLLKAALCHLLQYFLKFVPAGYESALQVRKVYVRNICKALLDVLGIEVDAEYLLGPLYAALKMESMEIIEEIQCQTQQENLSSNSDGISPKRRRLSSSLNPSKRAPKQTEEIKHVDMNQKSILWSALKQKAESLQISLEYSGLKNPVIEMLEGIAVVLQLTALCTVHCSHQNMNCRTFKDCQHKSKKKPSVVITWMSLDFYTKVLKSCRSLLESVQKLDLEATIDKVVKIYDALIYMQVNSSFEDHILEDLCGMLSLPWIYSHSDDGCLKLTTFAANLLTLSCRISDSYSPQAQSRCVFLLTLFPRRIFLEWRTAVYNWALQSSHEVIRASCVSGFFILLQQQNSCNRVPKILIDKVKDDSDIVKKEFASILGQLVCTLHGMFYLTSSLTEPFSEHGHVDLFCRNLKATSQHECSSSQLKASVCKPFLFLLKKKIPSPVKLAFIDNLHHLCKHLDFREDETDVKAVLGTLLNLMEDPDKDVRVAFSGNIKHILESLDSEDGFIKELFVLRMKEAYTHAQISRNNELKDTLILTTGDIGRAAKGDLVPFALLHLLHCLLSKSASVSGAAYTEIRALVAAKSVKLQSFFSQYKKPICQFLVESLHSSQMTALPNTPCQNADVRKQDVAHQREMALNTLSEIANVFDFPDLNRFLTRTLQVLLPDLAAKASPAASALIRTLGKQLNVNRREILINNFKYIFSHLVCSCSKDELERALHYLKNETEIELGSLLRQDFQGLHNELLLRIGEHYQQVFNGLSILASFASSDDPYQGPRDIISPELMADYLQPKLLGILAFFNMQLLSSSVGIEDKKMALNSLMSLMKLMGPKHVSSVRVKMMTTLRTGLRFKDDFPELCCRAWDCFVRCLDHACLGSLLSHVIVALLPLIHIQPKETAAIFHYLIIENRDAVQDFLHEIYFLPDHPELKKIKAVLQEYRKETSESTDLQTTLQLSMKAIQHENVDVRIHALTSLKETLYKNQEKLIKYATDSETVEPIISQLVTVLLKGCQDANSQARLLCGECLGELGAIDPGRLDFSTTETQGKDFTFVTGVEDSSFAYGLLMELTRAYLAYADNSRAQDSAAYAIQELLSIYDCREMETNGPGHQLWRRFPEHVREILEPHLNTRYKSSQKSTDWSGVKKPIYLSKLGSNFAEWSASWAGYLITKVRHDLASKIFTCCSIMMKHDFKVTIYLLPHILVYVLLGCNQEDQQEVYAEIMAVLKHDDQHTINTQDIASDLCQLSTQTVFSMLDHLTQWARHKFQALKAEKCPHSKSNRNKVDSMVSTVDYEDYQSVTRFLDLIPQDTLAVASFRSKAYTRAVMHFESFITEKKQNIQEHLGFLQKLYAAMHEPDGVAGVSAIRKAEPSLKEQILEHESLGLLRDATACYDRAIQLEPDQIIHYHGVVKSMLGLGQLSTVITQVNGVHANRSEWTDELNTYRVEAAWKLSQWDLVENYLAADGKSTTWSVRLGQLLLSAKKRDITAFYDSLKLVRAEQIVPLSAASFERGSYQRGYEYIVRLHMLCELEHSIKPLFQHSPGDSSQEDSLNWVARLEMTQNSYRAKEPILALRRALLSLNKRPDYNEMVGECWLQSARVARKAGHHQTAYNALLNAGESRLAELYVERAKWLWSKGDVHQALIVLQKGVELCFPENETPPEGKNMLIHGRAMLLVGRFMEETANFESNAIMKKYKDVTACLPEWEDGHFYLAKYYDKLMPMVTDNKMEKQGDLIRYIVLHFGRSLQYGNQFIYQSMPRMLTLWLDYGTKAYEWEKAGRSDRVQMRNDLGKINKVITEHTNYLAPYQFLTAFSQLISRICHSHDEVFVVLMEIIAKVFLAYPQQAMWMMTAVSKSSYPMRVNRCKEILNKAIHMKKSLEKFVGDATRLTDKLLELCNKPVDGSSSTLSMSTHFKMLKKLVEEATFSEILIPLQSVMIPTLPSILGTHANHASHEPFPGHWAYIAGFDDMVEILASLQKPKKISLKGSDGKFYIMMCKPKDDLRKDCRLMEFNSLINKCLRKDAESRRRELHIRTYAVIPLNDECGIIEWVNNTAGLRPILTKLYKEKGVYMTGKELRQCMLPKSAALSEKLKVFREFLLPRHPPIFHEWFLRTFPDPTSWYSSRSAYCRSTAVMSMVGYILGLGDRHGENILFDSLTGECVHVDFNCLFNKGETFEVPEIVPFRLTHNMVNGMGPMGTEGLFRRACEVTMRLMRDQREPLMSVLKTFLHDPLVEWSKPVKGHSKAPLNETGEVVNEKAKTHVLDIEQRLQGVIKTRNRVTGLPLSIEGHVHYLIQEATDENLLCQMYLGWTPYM
Chain of ATR (Q8WXE1 whole entry partner): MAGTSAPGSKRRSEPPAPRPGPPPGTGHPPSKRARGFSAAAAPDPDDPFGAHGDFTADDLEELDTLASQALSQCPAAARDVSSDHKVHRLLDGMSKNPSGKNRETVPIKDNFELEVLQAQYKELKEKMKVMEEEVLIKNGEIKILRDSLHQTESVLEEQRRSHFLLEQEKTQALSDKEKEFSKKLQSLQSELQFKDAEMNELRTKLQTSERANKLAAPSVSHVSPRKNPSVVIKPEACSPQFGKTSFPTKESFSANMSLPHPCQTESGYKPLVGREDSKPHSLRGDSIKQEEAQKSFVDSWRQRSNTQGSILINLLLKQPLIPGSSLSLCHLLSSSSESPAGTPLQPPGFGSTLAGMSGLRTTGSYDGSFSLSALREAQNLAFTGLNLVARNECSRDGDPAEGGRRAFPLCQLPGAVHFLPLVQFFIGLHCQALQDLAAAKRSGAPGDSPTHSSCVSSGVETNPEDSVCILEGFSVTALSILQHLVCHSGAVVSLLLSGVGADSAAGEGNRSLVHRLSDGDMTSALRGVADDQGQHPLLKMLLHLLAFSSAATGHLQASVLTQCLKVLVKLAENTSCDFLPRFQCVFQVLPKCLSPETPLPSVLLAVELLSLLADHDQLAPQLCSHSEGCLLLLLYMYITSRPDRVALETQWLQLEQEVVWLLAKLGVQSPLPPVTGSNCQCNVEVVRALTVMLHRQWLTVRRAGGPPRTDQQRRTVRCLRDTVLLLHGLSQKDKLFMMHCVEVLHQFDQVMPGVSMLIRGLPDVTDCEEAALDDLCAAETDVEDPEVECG

## Cc1nc(NC(=O)N2CCC[C@H]2C(N)=O)sc1-c1ccnc(C(C)(C)C(F)(F)F)c1 [Compound A, (S)-Pyrrolidine-1,2-dicarboxylic acid 2-amide 1-({4-methyl-5-[2-(2,2,2-trifluoro-1,1-dimethyl-ethyl)-pyridin-4-yl]-thiazol-2-yl}-amide)]
S473P-Akt [1]; Mus musculus, read-out: in vivo IC50, tumor concentration giving 50% S473P-Akt inhibition
  IC50: 600 nM
S473P-Akt [1]; Mus musculus, read-out: in vivo IC80 corrected for plasma protein binding
  IC80: 352 nM
S473P-Akt [1]; Mus musculus, tumor concentration, versus controls, Rat1-myr-p110α tumors, read-out: in vivo IC80, tumor concentration giving 80% S473P-Akt inhibition
  IC80: 4000 nM
S473P-Akt [1]; corrected for mouse PPB, read-out: in vivo IC50 corrected for plasma protein binding
  IC50: 53 nM
Plasma protein binding
  fraction unbound: 0.088
S473P-Akt [2]
  IC50: 74 nM
  IC80: 301 nM
Rat1-myr-p110α tumor [3]; 6.25 mg 2qd
  Efficacy T/C (observed): 0.02
Rat1-myr-p110α tumor [3]; 6.25 mg qd
  Efficacy T/C (observed): 0.19
Rat1-myr-p110α tumor [3]; 12.5 mg 2qd
  Efficacy Regression (observed): −0.55
Rat1-myr-p110α tumor [3]; 12.5 mg qd
  Efficacy T/C (observed): 0.09
Rat1-myr-p110α tumor [3]; 20 mg 2qd
  Efficacy Regression (observed): −0.80
Rat1-myr-p110α tumor [3]; 25 mg qd
  Efficacy Regression (observed): −0.53
Rat1-myr-p110α tumor [3]; 40 mg 2qd
  Efficacy Regression (observed): −0.86
Rat1-myr-p110α tumor [3]; 50 mg qd
  Efficacy Regression (observed): −0.65
Rat1-myr-p110α tumor [4]; 6.25 mg qd
  Efficacy T/C (observed): 0.22
Rat1-myr-p110α tumor [4]; 12.5 mg qd
  Efficacy T/C (observed): 0.05
Rat1-myr-p110α tumor [4]; 25 mg qd
  Efficacy Regression (observed): −0.65
Rat1-myr-p110α tumor [4]; 50 mg qd
  Efficacy Regression (observed): −0.80
Rat1-myr P110a tumors
  fraction of the dosing interval with 80% inhibition of Akt phosphorylation required to induce tumor stasis: at least 25 % of the dosing interval
[5]
  insulin plasma levels: increased proportionally
[6]
  insulin plasma levels: increased proportionally
[7]
  fraction of the dosing interval above the hyperglycemia cut-off that maintains body weight loss below 5%: no more than 35 % of the dosing interval
Human plasma exposure
  AUC: 35000 ng·h/mL and 80 µM·h
  Cmax: 3500 ng/mL and 8 µM
[8]
  dose linearity of pharmacokinetics: linear
[9]
  dose linearity of pharmacokinetics: linear
[10]
  clinical response: confirmed partial responses
[11]
  decreased appetite: 34 % of patients
  diarrhea: 35 % of patients
  hyperglycemia: 49 % of patients
  nausea: 43 % of patients
  rash and hypersensitivity: 34 % of patients
Vps34
  inhibitory activity against Vps34: lacks inhibitory activity
mTOR
  inhibitory activity against mTOR: lacks inhibitory activity
DNA-PK
  inhibitory activity against DNA-PK: lacks inhibitory activity
ATR
  inhibitory activity against ATR: lacks inhibitory activity
